Consider two compounds from patent EP0290003A2, “Imidazoles” (Byk Gulden Lomberg Chemische Fabrik GmbH, priority 1987, dated 1988).

For this test, the system named is modifizierten Shay-Ratte. The experiment in a line: Antiulcerogenic and secretion-inhibiting effect in the modified Shay rat (pylorus ligation + oral acetylsalicylic acid). Type of test: in vivo. Particulars: for Magenschutzwirkung: Minderung des Läsionsindexes (%) / Säuresekretionshemmung: Verringerung der HCl-Sekretion (%): versus control group, 4 h after pylorus ligation; for ED50: iv, 4 h, i.v. The text has this:
Prüfung der antiulcerogenen und sekretionshemmenden Wirkung an der modifizierten Shay-Ratte
In der folgenden Tabelle 1 ist der Einfluß der erfindungsgemäßen Verbindungen nach intravenöser (i. v.) Gabe auf die Läsionsbildung sowie die Säureausscheidung bei der modifizierten Shay-Ratte dargestellt.
Die Ulcusprovokation erfolgt an 24 Stunden nüchternen Ratten (weiblich, 180-200 g, 4 Tiere je Käfig auf hohem Gitterrost) durch Pylorusligatur (unter Diethylethernarkose) und orale Applikation von 100 mg/10ml/kg Acetylsalicylsäure. Die zu prüfenden Substanzen werden intravenös (1 ml/kg) unmittelbar nach der Pylorusligatur verabreicht. Der Wundverschluß wird mittels Michelklammern vorgenommen. 4 Stunden danach erfolgt die Tötung der Tiere im Etherrausch durch Atlas-Dislokation und die Resektion des Magens.
Der Magen wird längs der großen Kurvatur eröffnet und auf einer Korkplatte aufgespannt, nachdem zuvor die Menge des sezernierten Magensaftes (Volumen) und später sein HCl-Gehalt (Titration mit Natronlauge) bestimmt wird. Mit einem Stereomikroskop werden bei 10-facher Vergrößerung Anzahl und Größe (=Durch-messer) vorhandener Ulcera ermittelt. Das Produkt aus Schweregrad (gemäß nachfolgender Punkteskala) und Anzahl der Ulcera dient als individueller Läsionsindex.
Als Maß für den antiulcerogenen Effekt dient die Minderung des mittleren Lä-sionsindex jeder behandelten Gruppe gegenüber dem der Kontrollgruppe (=100 %). Die ED50 bezeichnet diejenige Dosis, die den mittleren Lösionsindex bzw. die HCl-Sektetion gegenüber der Kontrolle um 50 % mindert.

[1] abbreviates: Rattus norvegicus, interpolated dose reducing the lesion index by 50 % versus control group, read-out: Magenschutzwirkung: ca. ED50 (µmol/kg) i.v.
[2] abbreviates: interpolated dose reducing the HCl secretion of the rat stomach by 50 % versus control group, read-out: Säuresekretionshemmung: ca. ED50 (µmol/kg) i.v.

Structures are written as SMILES. Like-named read-outs stand apart in the source and are kept apart here.

For the compound `Cc1nc2c(OC3CCc4ccccc43)cccn2c1C` (stereo not drawn) [Beispiel 1, 8-(2,3-Dihydro-1-indenyloxy)-2,3-dimethyl-imidazo[1,2-a]pyridin], the “Magenschutzwirkung: Minderung des Läsionsindexes (%)” value (Dosis 0,1 µmol/kg i.v.) came out at 40%; the “Magenschutzwirkung: Minderung des Läsionsindexes (%)” value (Dosis 0,3 µmol/kg i.v.) is 58%; the “Magenschutzwirkung: Minderung des Läsionsindexes (%)” value (Dosis 1,0 µmol/kg i.v.) came to 75%; the “Magenschutzwirkung: Minderung des Läsionsindexes (%)” value (Dosis 3,0 µmol/kg i.v.) came out at 100%; the “Magenschutzwirkung: Minderung des Läsionsindexes (%)” value (Dosis 10,0 µmol/kg i.v.) is listed as 100%. For the same compound, the “Säuresekretionshemmung: Verringerung der HCl-Sekretion (%)” value by setting is: (Dosis 0,1 µmol/kg i.v.) 19%; (Dosis 0,3 µmol/kg i.v.) 21%; (Dosis 1,0 µmol/kg i.v.) 40%; (Dosis 3,0 µmol/kg i.v.) 62%; (Dosis 10,0 µmol/kg i.v.) 78%. Moreover, the ED50 is roughly 0.2 µmol/kg under setting [1] and roughly 1.93 µmol/kg under setting [2].

For `Cc1nc2c(OC3CCc4ccccc43)cccn2c1CC#N` (stereo not drawn) [Beispiel 4, 3-Cyanomethyl-8-(2,3-dihydro-1-indenyloxy)-2-methyl-imidazo[1,2-a]pyridin], the “Magenschutzwirkung: Minderung des Läsionsindexes (%)” value reads like this: (Dosis 0,1 µmol/kg i.v.) 47%; (Dosis 0,03 µmol/kg i.v.) 38%; (Dosis 0,3 µmol/kg i.v.) 64%; (Dosis 1,0 µmol/kg i.v.) 86%; (Dosis 3,0 µmol/kg i.v.) 100%. The “Säuresekretionshemmung: Verringerung der HCl-Sekretion (%)” value runs as follows: (Dosis 0,1 µmol/kg i.v.) -10%; (Dosis 0,03 µmol/kg i.v.) 3%; (Dosis 0,3 µmol/kg i.v.) 26%; (Dosis 1,0 µmol/kg i.v.) 27%; (Dosis 3,0 µmol/kg i.v.) 83%. Besides, the ED50 was roughly 0.1 µmol/kg under setting [1] and roughly 1.34 µmol/kg under setting [2].
